Measurements published in patent US20100209846A1, “NEGATIVE-WORKING IMAGEABLE ELEMENTS” (priority 2009, published 2010).

Assay: Solubility of contrast dye in water
Assay type: physicochemical

Solubility of contrast dye in 1 liter water [g] | Structure (SMILES)
0.25 | CCCCCCC(CCCCCC)c1ccc(/C=C2/C(=C(C#N)C#N)c3ccccc3S2(=O)=O)c(C)c1
4 | CN(C)c1ccc(C(=C2C=CC(=[N+](C)C)C=C2)c2ccc(N(C)C)cc2)cc1 [Crystal Violet]
